Data set [1] addresses T1, Bile acid receptor (Homo sapiens) (UniProt Q96RI1).
T1 sequence (whole entry): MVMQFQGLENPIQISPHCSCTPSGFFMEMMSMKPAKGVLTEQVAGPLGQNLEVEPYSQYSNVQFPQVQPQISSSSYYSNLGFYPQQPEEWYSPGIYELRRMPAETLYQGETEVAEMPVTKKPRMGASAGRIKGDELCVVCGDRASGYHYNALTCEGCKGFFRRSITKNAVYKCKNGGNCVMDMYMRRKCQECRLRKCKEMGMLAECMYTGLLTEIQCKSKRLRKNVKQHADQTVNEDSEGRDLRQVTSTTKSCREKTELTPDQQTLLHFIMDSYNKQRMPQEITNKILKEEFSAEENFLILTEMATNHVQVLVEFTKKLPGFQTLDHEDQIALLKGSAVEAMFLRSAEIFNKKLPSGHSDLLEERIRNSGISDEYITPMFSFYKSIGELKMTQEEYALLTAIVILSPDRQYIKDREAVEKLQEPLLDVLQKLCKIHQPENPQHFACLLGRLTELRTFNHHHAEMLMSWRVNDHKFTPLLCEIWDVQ
As to the kind of experiment: Agonist activity at FXR LBD expressed in human HepG2 cells co-expressing GAL4 DBD and pG5-luc assessed as luciferase activity at 1 uM after 48 hrs by transient transfection reporter assay relative to control. It counts as functional, cell-based. (A reporter such as luciferase makes a cellular process visible.)

The target in data set [2] is T1, Bile acid receptor (Homo sapiens). In words: Agonist activity at FXR LBD expressed in human HepG2 cells co-expressing GAL4 DBD and pG5-luc assessed as SHP promoter-driven luciferase activity at 1 uM after 48 hrs by transient transfection reporter assay relative to control. It is filed as functional, cell-based.
For data set [3] the target is unchanged. In words: Agonist activity at FXR LBD expressed in human HepG2 cells co-expressing GAL4 DBD and pG5-luc assessed as PLTP promoter-driven luciferase activity at 100 nM after 48 hrs by transient transfection reporter assay relative to control. It is filed as functional, cell-based.
Data set [4] shares this target. In words: Agonist activity at FXR LBD expressed in human HepG2 cells co-expressing GAL4 DBD and pG5-luc assessed as transrepression of rat CYP7A1 promoter-driven luciferase activity at 100 nM after 48 hrs by transient transfection reporter assay relative to control. It is filed as functional, cell-based.
The target is the same in data set [5]. As to the kind of experiment: Agonist activity at FXR LBD expressed in human HepG2 cells co-expressing GAL4 DBD and pG5-luc assessed as transrepression of rat CYP7A1 promoter-driven luciferase activity after 48 hrs by transient transfection reporter assay relative to control. It is filed as functional, cell-based.
Data set [6] shares this target. In words: Agonist activity at FXR LBD expressed in human HepG2 cells co-expressing GAL4 DBD and pG5-luc assessed as luciferase activity at 100 nM after 48 hrs by transient transfection reporter assay relative to control. It counts as functional, cell-based.
Data set [7] has the same target. As to the kind of experiment: Agonist activity at FXR LBD expressed in human HepG2 cells co-expressing GAL4 DBD and pG5-luc assessed as PLTP promoter-driven luciferase activity after 48 hrs by transient transfection reporter assay relative to control. It is filed as functional, cell-based.
The target is the same in data set [8]. As to the kind of experiment: Agonist activity at FXR LBD expressed in human HepG2 cells co-expressing GAL4 DBD and pG5-luc assessed as SHP promoter-driven luciferase activity at 100 nM after 48 hrs by transient transfection reporter assay relative to control. It counts as functional, cell-based.
The next data set concerns HepG2. In words: Cytotoxicity against human HepG2 cells. It is filed as cell-based.

Calls of active or inactive are those of the source. No cut-off for these calls is given here.

As to `CC(=O)O[C@@H](C[C@@H](C)C1=C2C[C@H](O)[C@H]3[C@@]4(C)CCC(=O)C(C)(C)[C@@H]4CC[C@]3(C)[C@@]2(C)CC1)[C@@H](O)C(C)(C)O`, the Ratio in data set [1] came to 2; in data set [2], 1.6. Besides, the outcome in [3], in data set [4], in data set [6] and in data set [8] was inactive. Further, the Activity entry was “Dose-dependent effect” in data set [5], “Dose-dependent effect” in [7] and “Non-toxic” in the data set with HepG2.

In the case of `C[C@H](C[C@H](O)[C@H]1OC1(C)C)C1=C2C[C@H](O)[C@H]3[C@@]4(C)CCC(=O)C(C)(C)[C@@H]4CC[C@]3(C)[C@@]2(C)CC1` [ALISOL B], in the data set on HepG2, the Activity result is listed as “Toxic”.

Turning to `CC(=O)O[C@@H](C[C@@H](C)C1=C2[C@H](O)[C@H](O)[C@H]3[C@@]4(C)CCC(=O)C(C)(C)[C@@H]4CC[C@]3(C)[C@@]2(C)CC1=O)[C@H]1OC1(C)C`, the figures for the Ratio in data set [1] and in data set [2] were 2 and 1.6, respectively. Moreover, the result in data set [3], in data set [6] and in [8] was inactive. For the same molecule, the Activity in [4] was 85%; in data set [5], “Dose-dependent effect”; in data set [7] it was “Dose-dependent effect”; in the data set with HepG2, “Non-toxic”.
